This data set can be described thus: Displacement of [3H]-Astemizole from human ERG.

For the molecule `C[C@@H](OC(=O)N1CCC(O[C@H]2CC[C@H](Oc3cnc(S(C)(=O)=O)cn3)CC2)CC1)C(F)(F)F`, the IC50 is greater than 1000 µM.

These data come from BindingDB's records for doi:10.1016/j.bmcl.2015.04.102 (Arena Pharmaceuticals, 2015).
